The target in data set [1] is human recombinant CB1 receptor (Homo sapiens, UniProt P21554). The data set is described as follows: Competition binding assay, displacement of [3H]-CP-55,940, CB1R. How it is done:
(§1) Binding at equilibrium was performed as previously reported. […] All compounds were tested following the procedure described by the manufacturer (Perkin Elmer, Italy). […] Ki values were calculated by applying the Cheng–Prusoff equation to the IC50 values (obtained by GraphPad) for the displacement of the bound radioligand by increasing concentrations of the test compound.
A general note: In a radioligand displacement assay an active substance lowers the binding of a labelled ligand.

For data set [2], the target named is human CB2 receptor (Homo sapiens, UniProt P34972). The data set is described as follows: Competition binding assay, displacement of [3H]-CP-55,940, CB2R. On the set-up: logKiCB2 (nM) Exp.: unit not given here. The conditions noted are these: for Ki: membranes from HEK cells, [3H]CP-55,940, mean ± SD, at least three experiments in duplicate; for logKiCB2 (nM) Exp.: log of experimental Ki. The protocol: as §1
Sequence of human CB2 receptor (P34972 whole entry): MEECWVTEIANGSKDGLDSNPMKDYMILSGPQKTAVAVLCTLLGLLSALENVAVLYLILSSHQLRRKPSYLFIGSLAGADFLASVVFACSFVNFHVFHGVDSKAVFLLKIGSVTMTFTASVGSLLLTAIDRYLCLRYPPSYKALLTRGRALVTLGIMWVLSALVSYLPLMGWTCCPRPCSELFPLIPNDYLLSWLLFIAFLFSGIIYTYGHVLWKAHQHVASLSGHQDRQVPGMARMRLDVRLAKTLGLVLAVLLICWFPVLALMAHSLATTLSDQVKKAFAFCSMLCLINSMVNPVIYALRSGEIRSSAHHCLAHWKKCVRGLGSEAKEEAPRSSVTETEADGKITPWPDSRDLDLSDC

[3] abbreviates: membranes from HEK cells, [3H]CP-55,940, mean ± SD, at least three experiments in duplicate, read-out: CB1R Ki.

The record followed here is article PMC10343475, “Systematic Modification of the Substitution Pattern of the 7-Hydroxy-5-oxopyrazolo[4,3-b]pyridine-6-carboxamide Scaffold Enabled the Discovery of New Ligands with High Affinity and Selectivity for the Cannabinoid Type 2 Receptor” (Molecules, 2023).

For orientation: Ki means the dissociation constant of the complex between target and ligand, obtained from inhibition or displacement. By melting point is commonly meant the temperature of the solid-liquid transition.

Each structure is given as a SMILES string. Like-named read-outs stand apart in the source and are kept apart here.

Sequence of human recombinant CB1 receptor (P21554 whole entry): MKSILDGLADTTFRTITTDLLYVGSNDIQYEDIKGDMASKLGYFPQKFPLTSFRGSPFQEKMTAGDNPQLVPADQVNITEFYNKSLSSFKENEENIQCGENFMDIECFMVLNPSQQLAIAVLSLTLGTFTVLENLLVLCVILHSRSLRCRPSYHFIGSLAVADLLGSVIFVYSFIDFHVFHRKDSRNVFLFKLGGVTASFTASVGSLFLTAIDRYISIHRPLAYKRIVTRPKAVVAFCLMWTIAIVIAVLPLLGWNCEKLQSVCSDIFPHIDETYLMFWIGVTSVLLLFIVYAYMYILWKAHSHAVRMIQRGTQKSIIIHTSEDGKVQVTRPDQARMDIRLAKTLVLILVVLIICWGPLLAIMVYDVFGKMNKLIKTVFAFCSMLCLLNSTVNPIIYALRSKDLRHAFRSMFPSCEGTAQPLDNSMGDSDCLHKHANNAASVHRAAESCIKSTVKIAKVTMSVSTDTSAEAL

Take `CCCCn1c(=O)c(C(=O)NC(C)(C)C)c(O)c2nn(C)cc21` [Compound 13, 4-(1-Butyl)-N-(tert-butyl)-7-hydroxy-2-methyl-5-oxo-4,5-dihydro-2H-pyrazolo[4,3-b]pyridine-6-carboxamide]: the Ki in data set [1] (setting [3]) and in data set [2] (read-out: CB2R Ki) was > 10 µM in each case.

In the case of `CCCCn1c(=O)c(C(=O)NC2CCCC2)c(O)c2nn(C)cc21` [Compound 14, 4-(1-Butyl)-N-cyclopentyl-7-hydroxy-2-methyl-5-oxo-4,5-dihydro-2H-pyrazolo[4,3-b]pyridine-6-carboxamide], the Ki in data set [1] (setting [3]) and in data set [2] (read-out: CB2R Ki) was > 10 µM each time.

On to `CCCCn1c(=O)c(C(=O)Nc2ccc(F)cc2)c(O)c2nn(C)cc21` [Compound 16, 4-(1-Butyl)-N-(4-fluorophenyl)-7-hydroxy-2-methyl-5-oxo-4,5-dihydro-2H-pyrazolo[4,3-b]pyridine-6-carboxamide], for which the Ki in data set [1] (setting [3]) and in data set [2] (read-out: CB2R Ki) was > 10 µM throughout.

Consider `CCCCn1c(=O)c(C(=O)NCc2ccc(F)cc2)c(O)c2nn(C)cc21` [Compound 17, 4-(1-Butyl)-N-(4-fluorobenzyl)-7-hydroxy-2-methyl-5-oxo-4,5-dihydro-2H-pyrazolo[4,3-b]pyridine-6-carboxamide], for which the Ki in data set [1] (setting [3]) and in data set [2] (read-out: CB2R Ki) was > 10 µM in each case.

On to `CCCCn1c(=O)c(C(=O)NC(c2ccccc2)c2ccccc2)c(O)c2nn(C)cc21` [Compound 19, N-Benzhydryl-4-(1-butyl)-7-hydroxy-2-methyl-5-oxo-4,5-dihydro-2H-pyrazolo[4,3-b]pyridine-6-carboxamide], for which, in data set [1] (setting [3]), the Ki was > 10 µM. Besides, in data set [2], the “SI (selectivity index for CB2R, Ki(CB1R)/Ki(CB2R))” value was >70 and the “logKiCB2 (nM) Exp.” value was 2.15. The Ki in data set [2] (read-out: CB2R Ki) came to 0.142 ± 0.11 µM.

As to `CCCCn1c(=O)c(C(=O)N[C@@H](Cc2ccccc2)C(=O)OC(C)(C)C)c(O)c2nn(C)cc21` [Compound 20, tert-Butyl (4-Butyl-7-hydroxy-2-methyl-5-oxo-4,5-dihydro-2H-pyrazolo[4,3-b]pyridine-6-carbonyl)-L-phenylalaninate], the Ki in data set [1] (setting [3]) and in data set [2] (read-out: CB2R Ki) was > 10 µM each time.

Take `CC(C)n1c(=O)c(C(=O)NC23CC4CC(CC(C4)C2)C3)c(O)c2nn(C)cc21` [Compound 21, N-(Adamantan-1-yl)-7-hydroxy-4-isopropyl-2-methyl-5-oxo-4,5-dihydro-2H-pyrazolo[4,3-b]pyridine-6-carboxamide]: the Ki in data set [1] and in data set [2] (CB2R Ki) was > 10 µM each time.

As for `CC(C)n1c(=O)c(C(=O)NC23CC4CC(CC(O)(C4)C2)C3)c(O)c2nn(C)cc21` [Compound 22, 7-Hydroxy-N-(1-hydroxyadamantan-3-yl)-4-isopropyl-2-methyl-5-oxo-4,5-dihydro-2H-pyrazolo[4,3-b]pyridine-6-carboxamide], the Ki in data set [1] (setting [3]) and in data set [2] (read-out: CB2R Ki) was > 10 µM in each case.

Regarding `CC(C)n1c(=O)c(C(=O)NC2CCCCCCC2)c(O)c2nn(C)cc21` [Compound 23, N-Cyclooctyl-7-hydroxy-4-isopropyl-2-methyl-5-oxo-4,5-dihydro-2H-pyrazolo[4,3-b]pyridine-6-carboxamide], the Ki in data set [1] (setting [3]) and in data set [2] (read-out: CB2R Ki) was > 10 µM in each case.

For `CC(C)n1c(=O)c(C(=O)NC2CCCc3ccccc32)c(O)c2nn(C)cc21` (centres unmarked) [Compound 24, 7-Hydroxy-4-isopropyl-2-methyl-5-oxo-N-(1,2,3,4-tetrahydronaphthalen-1-yl)-4,5-dihydro-2H-pyrazolo[4,3-b]pyridine-6-carboxamide], the inhibitory constant (Ki) in data set [1] (setting [3]) and in data set [2] (read-out: CB2R Ki) was > 10 µM each time.

For `CC(C)n1c(=O)c(C(=O)NC(c2ccccc2)c2ccccc2)c(O)c2nn(C)cc21` [Compound 25, N-Benzhydryl-7-hydroxy-4-isopropyl-2-methyl-5-oxo-4,5-dihydro-2H-pyrazolo[4,3-b]pyridine-6-carboxamide], the inhibitory constant (Ki) in data set [1] (setting [3]) and in data set [2] (read-out: CB2R Ki) was > 10 µM in each case.

As for `COc1ccc(Cn2c(=O)c(C(=O)NC34CC5CC(CC(C5)C3)C4)c(O)c3nn(C)cc32)c(OC)c1` [Compound 27, N-(Adamantan-1-yl)-4-(2,4-dimethoxybenzyl)-7-hydroxy-2-methyl-5-oxo-4,5-dihydro-2H-pyrazolo[4,3-b]pyridine-6-carboxamide], the melting point was > 270 °C. Also, the inhibitory constant (Ki) in data set [1] (setting [3]) is > 10 µM. The “CB2 receptor affinity in words” value in data set [2] was “completely inactive”. The Ki in data set [2] (read-out: CB2R Ki) was > 10 µM.

Molecule `CCn1cc2c(n1)c(O)c(C(=O)NC13CC4CC(CC(C4)C1)C3)c(=O)n2CC` [Compound 33, N-(Adamantan-1-yl)-2,4-diethyl-7-hydroxy-5-oxo-4,5-dihydro-2H-pyrazolo[4,3-b]pyridine-6-carboxamide] yielded a melting point of 245 to 247 °C. The inhibitory constant (Ki) in data set [1] (setting [3]) is > 10 µM. In addition, in data set [2], the “SI (selectivity index for CB2R, Ki(CB1R)/Ki(CB2R))” value is on record as >416 and the “logKiCB2 (nM) Exp.” value is given as 1.38. Also, the inhibitory constant (Ki) in data set [2] (read-out: CB2R Ki) was found to be 0.024 ± 0.0153 µM.

Take `CCCCn1c(=O)c(C(=O)NC(C)(C)C)c(O)c2nn(CC)cc21` [Compound 34, 4-(1-Butyl)-N-(tert-butyl)-2-ethyl-7-hydroxy-5-oxo-4,5-dihydro-2H-pyrazolo[4,3-b]pyridine-6-carboxamide]: in data set [1] (setting [3]), the Ki was > 10 µM. In data set [2], the “SI (selectivity index for CB2R, Ki(CB1R)/Ki(CB2R))” value is listed as >95 and the “logKiCB2 (nM) Exp.” value was found to be 2.02. For the same molecule, the Ki in data set [2] (read-out: CB2R Ki) is 0.106 ± 0.0181 µM.

`CCCCn1c(=O)c(C(=O)NC23CC4CC(CC(C4)C2)C3)c(O)c2c1c(C)nn2C` [Compound 51, N-(Adamantan-1-yl)-4-(1-butyl)-7-hydroxy-1,3-dimethyl-5-oxo-4,5-dihydro-1H-pyrazolo[4,3-b]pyridine-6-carboxamide] returned a melting point of 162 to 165 °C. Also, the Ki in data set [1] (setting [3]) is > 10 µM. Moreover, in data set [2], the “SI (selectivity index for CB2R, Ki(CB1R)/Ki(CB2R))” value is given as >280 and the “logKiCB2 (nM) Exp.” value was 1.55. Moreover, in data set [2] (CB2R Ki), the affinity, expressed as Ki, was 0.0356 ± 0.0195 µM.

As for `CC(C)n1c(=O)c(C(=O)NC23CC4CC(CC(C4)C2)C3)c(O)c2n[nH]cc21` [Compound 56], the Ki in data set [1] (setting [3]) and in data set [2] (read-out: CB2R Ki) was > 10 µM each time. Besides, the “CB2 receptor affinity in words” value in data set [2] is “inactive”.

For `C#CCn1ncc2c1c(O)c(C(=O)NC13CC4CC(CC(C4)C1)C3)c(=O)n2C(C)C` [Compound 58], the Ki in data set [1] is > 10 µM; in data set [2] (CB2R Ki), 0.0618 ± 0.0208 µM. The “SI (selectivity index for CB2R, Ki(CB1R)/Ki(CB2R))” value in data set [2] is listed as >162. Further, in data set [2], the “logKiCB2 (nM) Exp.” value is on record as 1.79.

For `C#CCn1cc2c(n1)c(O)c(C(=O)NC13CC4CC(CC(C4)C1)C3)c(=O)n2C(C)C` [Compound 59], the Ki in data set [1] and in data set [2] (CB2R Ki) was > 10 µM each time. The “CB2 receptor affinity in words” value in data set [2] was “inactive”.

Turning to `CC(C)n1c(=O)c(C(=O)NC23CC4CC(CC(C4)C2)C3)c(O)c2c1cnn2CC#N` [Compound 60], in data set [1] (setting [3]), the Ki is > 10 µM. In data set [2], the “SI (selectivity index for CB2R, Ki(CB1R)/Ki(CB2R))” value was >206 and the “logKiCB2 (nM) Exp.” value stood at 1.68. Further, the Ki in data set [2] (read-out: CB2R Ki) was determined as 0.0485 ± 0.0109 µM.

Consider `CC(C)n1c(=O)c(C(=O)NC23CC4CC(CC(C4)C2)C3)c(O)c2nn(CC(=O)OC(C)(C)C)cc21` [Compound 61], for which the Ki in data set [1] (setting [3]) and in data set [2] (read-out: CB2R Ki) was > 10 µM throughout. Further, the “CB2 receptor affinity in words” value in data set [2] is “inactive”.

On to `CC(C)n1c(=O)c(C(=O)NC23CC4CC(CC(C4)C2)C3)c(O)c2nn(Cc3ccc(F)cc3)cc21` [Compound 62], for which the inhibition constant (Ki) in data set [1] (setting [3]) and in data set [2] (read-out: CB2R Ki) was > 10 µM throughout. In data set [2], the “CB2 receptor affinity in words” value is “inactive”.
